Measurements from ChEMBL document CHEMBL1201862, “PubChem BioAssay data set” (2004).
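These data come from cells grown in 96-well plates and exposed to compound for 48 hours at five concentrations. GI50: concentration for 50% inhibition of growth.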 Active and inactive are the calls of the source. Cut-off read from the data, not from the text of the source: active = GI50 up to about 1.1 µM and inactive = higher.

Legend:
Test in all cases: NCI tumour cell line growth inhibition, 48 h
786-0 = tested on: 786-0
A498 = tested on: A498
A549 = tested on: A549
ACHN = tested on: ACHN
CAKI-1 = tested on: CAKI-1
CCRF-CEM = tested on: CCRF-CEM
COLO 205 = tested on: COLO 205
DLD-1 = tested on: DLD-1
DMS-114 = tested on: DMS-114
DMS-273 = tested on: DMS-273
EKVX = tested on: EKVX
HCC 2998 = tested on: HCC 2998
HCT-116 = tested on: HCT-116
HCT-15 = tested on: HCT-15
HL-60 = tested on: HL-60
HOP-18 = tested on: HOP-18
HOP-62 = tested on: HOP-62
HOP-92 = tested on: HOP-92
HT-29 = tested on: HT-29
IGROV-1 = tested on: IGROV-1
K562 = tested on: K562
KM-20L2 = tested on: KM-20L2
KM12 = tested on: KM12
LOX IMVI = tested on: LOX IMVI
LXFL 529 = tested on: LXFL 529
M14 = tested on: M14
M19-MEL = tested on: M19-MEL
MOLT-4 = tested on: MOLT-4
Malme-3M = tested on: Malme-3M
NCI-H226 = tested on: NCI-H226
NCI-H23 = tested on: NCI-H23
NCI-H460 = tested on: NCI-H460
NCI-H522 = tested on: NCI-H522
OVCAR-3 = tested on: OVCAR-3
OVCAR-4 = tested on: OVCAR-4
OVCAR-5 = tested on: OVCAR-5
OVCAR-8 = tested on: OVCAR-8
RPMI-8226 = tested on: RPMI-8226
RXF 631 = tested on: RXF 631
SF-268 = tested on: SF-268
SF-295 = tested on: SF-295
SF-539 = tested on: SF-539
SK-MEL-28 = tested on: SK-MEL-28
SK-MEL-2 = tested on: SK-MEL-2
SK-MEL-5 = tested on: SK-MEL-5
SK-OV-3 = tested on: SK-OV-3
SN12C = tested on: SN12C
SNB-19 = tested on: SNB-19
SNB-75 = tested on: SNB-75
SNB-78 = tested on: SNB-78
SR = tested on: SR
SW-620 = tested on: SW-620
TK-10 = tested on: TK-10
U-251 = tested on: U-251
UACC-257 = tested on: UACC-257
UACC-62 = tested on: UACC-62
UO-31 = tested on: UO-31
RXF 393 = tested on: RXF 393
XF498 = tested on: XF498

O=C(CC(=O)n1nc(-c2ccccc2)c(/N=N/c2ccc(Cl)cc2)c1-c1ccccc1)Nc1ccc(Cl)cc1
GI50 (786-0): > 43.3 µM (inactive) | GI50 (A498): > 100 µM (inactive) | GI50 (A549): > 43.9 µM (inactive) | GI50 (ACHN): > 100 µM (inactive) | GI50 (CAKI-1): > 100 µM (inactive) | GI50 (CCRF-CEM): > 43.5 µM (inactive) | GI50 (COLO 205): > 46.9 µM (inactive) | GI50 (DLD-1): 18.6 µM (inactive) | GI50 (DMS-114): > 40.6 µM (inactive) | GI50 (DMS-273): > 55.1 µM (inactive) | GI50 (EKVX): > 100 µM (inactive) | GI50 (HCC 2998): > 100 µM (inactive) | GI50 (HCT-116): > 39.9 µM (inactive) | GI50 (HCT-15): > 41.7 µM | GI50 (HL-60): > 100 µM (inactive) | GI50 (HOP-18): > 100 µM (inactive) | GI50 (HOP-62): > 100 µM (inactive) | GI50 (HOP-92): > 91 µM (inactive) | GI50 (HT-29): > 43.3 µM (inactive) | GI50 (IGROV-1): > 100 µM (inactive) | GI50 (K562): > 41.7 µM (inactive) | GI50 (KM-20L2): > 76 µM (inactive) | GI50 (KM12): 48.6 µM (inactive) | GI50 (LOX IMVI): > 41.5 µM (inactive) | GI50 (LXFL 529): > 60 µM (inactive) | GI50 (M14): > 100 µM (inactive) | GI50 (M19-MEL): > 47.8 µM (inactive) | GI50 (MOLT-4): > 100 µM (inactive) | GI50 (Malme-3M): > 100 µM (inactive) | GI50 (NCI-H226): > 100 µM (inactive) | GI50 (NCI-H23): > 100 µM (inactive) | GI50 (NCI-H460): > 43.4 µM (inactive) | GI50 (NCI-H522): > 100 µM (inactive) | GI50 (OVCAR-3): > 100 µM (inactive) | GI50 (OVCAR-4): > 100 µM (inactive) | GI50 (OVCAR-5): > 100 µM (inactive) | GI50 (OVCAR-8): 63.4 µM (inactive) | GI50 (RPMI-8226): > 46.3 µM (inactive) | GI50 (RXF 631): > 100 µM (inactive) | GI50 (SF-268): > 88.7 µM (inactive) | GI50 (SF-295): > 100 µM (inactive) | GI50 (SF-539): > 100 µM (inactive) | GI50 (SK-MEL-28): > 100 µM (inactive) | GI50 (SK-MEL-2): > 100 µM (inactive) | GI50 (SK-MEL-5): > 100 µM (inactive) | GI50 (SK-OV-3): > 100 µM (inactive) | GI50 (SN12C): > 100 µM (inactive) | GI50 (SNB-19): > 100 µM (inactive) | GI50 (SNB-75): > 50.5 µM (inactive) | GI50 (SNB-78): > 100 µM (inactive) | GI50 (SR): > 100 µM (inactive) | GI50 (SW-620): > 44.1 µM (inactive) | GI50 (TK-10): > 61.1 µM (inactive) | GI50 (U-251): > 100 µM (inactive) | GI50 (UACC-257): > 49.2 µM (inactive) | GI50 (UACC-62): > 100 µM (inactive) | GI50 (UO-31): > 100 µM (inactive)

O=c1nc(-c2ccccc2)scc1-c1ccccc1
GI50 (786-0): 78.3 µM (inactive) | GI50 (A549): > 100 µM (inactive) | GI50 (ACHN): > 100 µM (inactive) | GI50 (CAKI-1): > 100 µM (inactive) | GI50 (CCRF-CEM): > 100 µM (inactive) | GI50 (COLO 205): > 100 µM (inactive) | GI50 (DLD-1): > 100 µM (inactive) | GI50 (DMS-114): > 100 µM (inactive) | GI50 (EKVX): > 100 µM (inactive) | GI50 (HCT-116): > 100 µM (inactive) | GI50 (HCT-15): > 100 µM | GI50 (HL-60): > 100 µM (inactive) | GI50 (HOP-18): > 100 µM (inactive) | GI50 (HOP-62): 44.7 µM (inactive) | GI50 (HOP-92): 67.9 µM (inactive) | GI50 (HT-29): > 100 µM (inactive) | GI50 (IGROV-1): > 100 µM (inactive) | GI50 (K562): > 100 µM (inactive) | GI50 (KM-20L2): > 100 µM (inactive) | GI50 (KM12): > 100 µM (inactive) | GI50 (LXFL 529): > 100 µM (inactive) | GI50 (M14): > 100 µM (inactive) | GI50 (M19-MEL): > 100 µM (inactive) | GI50 (MOLT-4): > 100 µM (inactive) | GI50 (Malme-3M): > 100 µM (inactive) | GI50 (NCI-H226): > 100 µM (inactive) | GI50 (NCI-H23): > 100 µM (inactive) | GI50 (NCI-H460): > 100 µM (inactive) | GI50 (NCI-H522): 21 µM (inactive) | GI50 (OVCAR-3): > 100 µM (inactive) | GI50 (OVCAR-4): > 100 µM (inactive) | GI50 (OVCAR-8): > 100 µM (inactive) | GI50 (RPMI-8226): > 100 µM (inactive) | GI50 (RXF 393): 74.5 µM (inactive) | GI50 (RXF 631): > 100 µM (inactive) | GI50 (SF-268): 86.3 µM (inactive) | GI50 (SF-295): > 100 µM (inactive) | GI50 (SF-539): > 100 µM (inactive) | GI50 (SK-MEL-28): > 100 µM (inactive) | GI50 (SK-MEL-2): > 100 µM (inactive) | GI50 (SK-MEL-5): > 100 µM (inactive) | GI50 (SK-OV-3): > 100 µM (inactive) | GI50 (SN12C): > 100 µM (inactive) | GI50 (SNB-19): 59.7 µM (inactive) | GI50 (SNB-75): > 100 µM (inactive) | GI50 (SR): > 100 µM (inactive) | GI50 (SW-620): > 100 µM (inactive) | GI50 (TK-10): > 100 µM (inactive) | GI50 (U-251): 98.6 µM (inactive) | GI50 (UACC-257): > 100 µM (inactive) | GI50 (UACC-62): 35.5 µM (inactive) | GI50 (UO-31): > 100 µM (inactive) | GI50 (XF498): > 100 µM (inactive)
